Experimental data: US10287251B2, “Pyrazole derivative or pharmaceutically acceptable salt thereof” (KISSEI PHARMACEUTICAL CO., LTD., priority 2015, dated 2019)

How the values were obtained:
TRPM8 = target: T1, TRPM8 (Rattus norvegicus, UniProt Q8R455); assay: Confirmation test of inhibitory effects on icilin-induced wet-dog shakes; format: in vivo; settings: female SD rats, icilin 1 mg/kg i.p. 1 hour after dosing, shakes counted for 5 minutes
T1 construct: from tissue; host or cells: whole animal, female SD rats (in vivo)
Outline: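 Female SD rats received compounds orally at 0.3 to 10 mg/kg in 5% dimethylacetamide/0.5% methylcellulose. One hour later, icilin (1 mg/kg, i.p., in PEG 400) was given, and wet-dog shakes were counted for 5 min starting 5 min after icilin. Percent inhibition was calculated against vehicle-treated rats.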

[1] = test system: overactive bladder induced by acetic acid; assay: Confirmation test of elongation action of micturition interval of overactive bladder induced by acetic acid; format: in vivo; settings: Rattus norvegicus, iv; urethane-anesthetized female SD rats, 1 mg/kg/mL via femoral vein, intravesical 0.25% acetic acid; interval after/before administration x100
From the text: Further, TRPM8 inhibitory activity can be evaluated by the efficacy inhibiting the wet-dog shake action which is induced by the administration of Icilin, TRPM8 agonist. Furthermore, an effect on overactive bladder (OAB) can be evaluated by an elongation of micturition interval against overactive bladder induced by acetic acid in accordance with a similar method described in J. Urol., 2001, 166, 1142. Confirmation Test of Elongation Action of Micturition Interval of Overactive Bladder Induced by Acetic Acid Urethane (sigma) was dissolved into pure water by 25% w/v, and female SD rats were anesthetized with 1.25 g/kg urethane by subcutaneous administration. Cannulae were placed in femoral vein and bladder, and the bladder cannula was connected to both a syringe pump and a pressure transducer. Detrusor overactivity was induced by intravesical infusion of 0.25% acetic acid in saline at a rate of 3.6 mL/h, and intravesical pressure was monitored via pressure transducer concurrently. Test compounds were dissolved into a mixture of dimethylacetamide and saline (20:80), and were administered via, the femoral vein. Elongation of micturition interval (%) by test compound was calculated from the following formula: [an average of the three micturition interval after administration/an average of the three micturition interval before administration]×100.

T1 sequence (Q8R455 whole entry): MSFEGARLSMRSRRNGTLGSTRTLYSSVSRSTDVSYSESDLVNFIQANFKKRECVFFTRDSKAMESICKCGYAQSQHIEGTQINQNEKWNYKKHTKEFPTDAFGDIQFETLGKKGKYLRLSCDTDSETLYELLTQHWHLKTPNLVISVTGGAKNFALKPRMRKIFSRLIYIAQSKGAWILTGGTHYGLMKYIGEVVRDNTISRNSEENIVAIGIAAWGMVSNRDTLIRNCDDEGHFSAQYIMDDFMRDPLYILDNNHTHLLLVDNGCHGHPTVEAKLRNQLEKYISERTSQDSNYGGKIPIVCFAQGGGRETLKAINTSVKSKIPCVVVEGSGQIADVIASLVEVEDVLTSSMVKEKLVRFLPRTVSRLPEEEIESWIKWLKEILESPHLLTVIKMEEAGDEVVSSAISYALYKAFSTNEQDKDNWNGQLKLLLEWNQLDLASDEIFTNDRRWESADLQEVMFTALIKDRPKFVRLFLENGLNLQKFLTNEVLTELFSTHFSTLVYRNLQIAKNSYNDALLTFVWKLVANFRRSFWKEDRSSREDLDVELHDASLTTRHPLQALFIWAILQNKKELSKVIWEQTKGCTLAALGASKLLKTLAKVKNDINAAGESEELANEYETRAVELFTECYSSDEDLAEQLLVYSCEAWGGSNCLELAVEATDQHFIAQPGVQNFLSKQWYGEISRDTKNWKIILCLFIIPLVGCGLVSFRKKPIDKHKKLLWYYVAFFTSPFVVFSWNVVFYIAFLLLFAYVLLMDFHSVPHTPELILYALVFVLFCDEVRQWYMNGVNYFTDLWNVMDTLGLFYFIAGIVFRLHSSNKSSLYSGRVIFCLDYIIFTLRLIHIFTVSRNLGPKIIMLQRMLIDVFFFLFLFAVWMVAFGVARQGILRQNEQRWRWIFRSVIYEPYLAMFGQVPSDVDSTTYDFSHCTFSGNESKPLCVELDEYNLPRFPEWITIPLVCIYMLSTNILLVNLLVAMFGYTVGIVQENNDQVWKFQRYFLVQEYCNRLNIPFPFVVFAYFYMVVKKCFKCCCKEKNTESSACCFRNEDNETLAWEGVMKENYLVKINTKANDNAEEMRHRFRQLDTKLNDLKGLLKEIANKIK

% inhibition of Wet-Dog Shake (TRPM8; oral dose 1 mg/kg) [%] | % inhibition of Wet-Dog Shake (TRPM8; oral dose 0.3 mg/kg) [%] | % inhibition of Wet-Dog Shake (TRPM8; oral dose 3 mg/kg) [%] | SMILES | response vs control in vivo at 1 mg/kg [1] [%]
84 | – | – | CO[C@H](CO)[C@@H](Cn1cccn1)NC(=O)c1cccc(F)c1-c1cc(-c2ccc(F)cc2)[nH]n1 [Example 27-1, 3-Fluoro-2-[5-(4-fluorophenyl)-1H-pyrazol-3-yl]-N-[(2R,3S)-4-hydroxy-3-methoxy-1-(1H-pyrazol-1-yl)butan-2-yl]benzamide] | 158
88 | – | – | CO[C@H](CO)[C@@H](Cn1cccn1)NC(=O)c1ccccc1-c1cc(-c2ccc(F)cc2)[nH]n1 [Example 27-7] | 176
51 | – | – | CO[C@H](CO)[C@@H](Cn1cccn1)NC(=O)c1cccc(F)c1-c1cc(-c2ccc(Cl)cc2)[nH]n1 [Example 27-14] | 195
90 | – | – | CO[C@H](CO)[C@@H](Cn1cccn1)NC(=O)c1cccc(F)c1-c1n[nH]c(-c2ccc(F)cc2)c1F [Example 27-25] | 167
90 | – | – | CO[C@H](CO)[C@@H](Cc1ccccn1)NC(=O)c1cccc(F)c1-c1cc(-c2ccc(Cl)cc2)[nH]n1 [Example 43-1, 2-[5-(4-Chlorophenyl)-1H-pyrazol-3-yl]-3-fluoro-N-[(2R,3 S)-4-hydroxy-3-methoxy-1-(pyridin-2-yl)butan-2-yl]benzamide] | 156
– | 58 | – | CO[C@H](CO)[C@@H](Cc1ccccn1)NC(=O)c1cccc(F)c1-c1cc(-c2ccc(F)cc2)[nH]n1 [Example 43-3] | 158
– | – | 80 | O=C(N[C@H](Cc1ccccn1)[C@H](F)CO)c1cccc(Cl)c1-c1cc(-c2ccc(F)cc2)[nH]n1 [Example 43-27] | 185
100 | – | – | O=C(N[C@H](Cn1nccn1)[C@H](F)CO)c1cccc(F)c1-c1cc(-c2ccc(F)cc2)[nH]n1 [Example 43-42] | 158
– | 93 | – | O=C(N[C@H](Cn1nccn1)[C@H](F)CO)c1cccc(F)c1-c1n[nH]c(-c2ccc(F)cc2)c1F [Example 43-43] | 172
92 | – | – | O=C(N[C@H](Cn1cccn1)C(F)(F)CO)c1cccc(F)c1-c1cc(-c2ccc(F)cc2)[nH]n1 [Example 50-1, N-[(2R)-3,3-Difluoro-4-hydroxy-1-(1H-pyrazol-1-yl)butan-2-yl]-3-fluoro-2-[5-(4-fluorophenyl)-1H-pyrazol-3-yl]benzamide] | 217
54 | – | – | O=C(N[C@H](Cn1cccn1)[C@H](F)CO)c1cccc(F)c1-c1cc(-c2ccc(F)cc2)[nH]n1 [Example 50-6] | 197
– | 99 | – | O=C(N[C@H](Cn1nccn1)C(F)(F)CO)c1cccc(F)c1-c1cc(-c2ccc(F)cc2)[nH]n1 [Example 50-12, N-[(2R)-3,3-Difluoro-4-hydroxy-1-(2H-1,2,3-triazol-2-yl)butan-2-yl]-3-fluoro-2-[5-(4-fluorophenyl)-1H-pyrazol-3-yl]benzamide] | 191
– | – | 86 | CC(c1ccccn1)[C@@H](NC(=O)c1cccc(F)c1-c1cc(-c2ccc(Cl)cc2)[nH]n1)[C@H](O)CO (stereo partly shown) [Example 54-16] | 132
– | 91 | – | O=C(N[C@H](Cn1nccn1)C(F)(F)CO)c1cccc(F)c1-c1n[nH]c(-c2ccc(F)cc2)c1F [Example 56-1, N-[(2R)-3,3-Difluoro-4-hydroxy-1-(2H-1,2,3-triazol-2-yl)butan-2-yl]-3-fluoro-2-[4-fluoro-5-(4-fluorophenyl)-1H-pyrazol-3-yl]benzamide] | 150
